Data on nine compounds can be found in patent publication EP4656642A1, “ESTROGEN RECEPTOR PROTEOLYSIS TARGETING CHIMERA COMPOUND AND USE THEREOF” (GAN & LEE PHARM CO., LTD, priority 2023, dated 2024).

By IC50 is commonly meant the midpoint of a concentration-inhibition curve. Lower therefore signals greater potency.

What all share (assay type): cell-based
One assay relates to VCaP cells. As to the kind of experiment: Inhibition of proliferation of VCaP cells (WST-8, 168 hours). The settings on record: VCaP cells, 168 hours, WST-8. The method, then:
Test Example 7 Inhibitory activity of the compounds disclosed in the present disclosure on the proliferation of VCaP cells
VCaP cells (ATCC, CRL-2876) were cultured in DMEM (Gibco, 11995-065) complete medium containing 10% fetal bovine serum (Hyclone, SH30406.05). On the first day of the experiment, VCaP cells were inoculated in 96-well plates at a density of 15,000 cells/well using DMEM medium containing 10% fetal bovine serum, with 100µL of cell suspension per well, and placed in a cell culture incubator with 5% CO2 at 37°C overnight. […] The compound concentrations were prepared in complete DMEM medium and serially diluted 5-fold starting from 10 µM, resulting in a total of nine concentration points. Wells receiving 100 µL of DMEM medium containing 10% FBS only were used as blank controls. The plates were incubated at 37°C in a 5% CO2 incubator for 168 hours.
For orientation: Tetrazolium assays rely on reduction of a dye to a coloured formazan, in cell work by metabolically active cells.

For the next assay, the system named is LNCAP FGC cells. As to the kind of experiment: Inhibition of LNCAP cell proliferation (WST-8, 96 hours). To be noted: LNCAP FGC cells, 96 hours, WST-8. The method, then: Test Example 8 Inhibitory activity of the compounds disclosed in the present disclosure on LNCAP cell proliferation
LNCAP FGC cells (ATCC, CLR-1740) were cultured in RPMI 1640 (ATCC, 30-2001) complete medium containing 10% fetal bovine serum (Hyclone, SH30406.05). On the first day of the experiment, LNCaP FGC cells were inoculated in 96-well plates at a density of 5,000 cells/well using RPMI 1640 medium containing 10% fetal bovine serum, with 100µL of cell suspension per well, and placed in a cell culture incubator with 5% CO2 at 37°C overnight. […] The compound concentrations were prepared in complete […] medium and serially diluted 5-fold starting from 10 µM, resulting in a total of nine concentration points. Wells receiving 100 µL of RPMI 1640 medium containing 10% FBS only were used as controls. The plates were incubated at 37°C in a 5% CO2 incubator for 96 hours.

For another assay, the target named is T1, AR protein (Homo sapiens, UniProt P10275, T878A).
T1 construct: host or cells: LNCaP FGC
T1 sequence (P10275 1-920 T878A): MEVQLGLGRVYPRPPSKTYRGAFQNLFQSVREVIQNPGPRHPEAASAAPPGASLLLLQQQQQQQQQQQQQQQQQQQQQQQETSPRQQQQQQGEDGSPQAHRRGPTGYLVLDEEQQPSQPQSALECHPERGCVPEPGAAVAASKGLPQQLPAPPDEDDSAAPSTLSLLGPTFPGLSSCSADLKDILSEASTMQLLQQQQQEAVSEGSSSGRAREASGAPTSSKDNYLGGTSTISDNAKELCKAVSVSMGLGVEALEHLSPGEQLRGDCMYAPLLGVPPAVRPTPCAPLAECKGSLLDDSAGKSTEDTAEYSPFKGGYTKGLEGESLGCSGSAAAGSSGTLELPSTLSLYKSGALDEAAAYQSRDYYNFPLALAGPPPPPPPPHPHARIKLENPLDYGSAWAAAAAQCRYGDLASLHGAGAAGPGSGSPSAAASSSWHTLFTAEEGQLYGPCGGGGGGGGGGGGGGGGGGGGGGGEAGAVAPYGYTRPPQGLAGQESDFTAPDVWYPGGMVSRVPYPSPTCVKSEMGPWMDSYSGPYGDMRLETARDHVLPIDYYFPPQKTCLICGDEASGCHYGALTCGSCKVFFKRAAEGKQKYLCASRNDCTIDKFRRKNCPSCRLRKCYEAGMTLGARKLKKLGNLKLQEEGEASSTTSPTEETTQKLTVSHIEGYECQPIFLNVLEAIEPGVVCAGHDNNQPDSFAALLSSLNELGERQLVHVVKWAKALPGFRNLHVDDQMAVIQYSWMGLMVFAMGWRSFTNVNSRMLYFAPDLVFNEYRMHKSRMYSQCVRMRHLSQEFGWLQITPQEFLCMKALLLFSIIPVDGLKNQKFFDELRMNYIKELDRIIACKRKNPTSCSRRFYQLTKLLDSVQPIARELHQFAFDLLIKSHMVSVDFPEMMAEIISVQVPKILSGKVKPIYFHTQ
As to the kind of experiment: Degradation of AR protein in LNCAP cells (Western blot, 8 h). The settings on record: LNCaP FGC cells. As to the method: After 8 h, the culture medium was discarded, and the cells were washed with PBS. After the cells were washed with PBS, RIPA lysis buffer containing 1% Protease Inhibitor Cocktail was added, and the total protein extract was obtained after lysis and centrifugation, and the protein concentration in the extract was detected by BCA method. Protein electrophoresis was carried out by SDS-PAGE, after which the proteins were transferred to PVDF (Millipore Sigma Catalog No. PSRP010R5) membrane by 100V constant voltage electrotransfer for 60 min, and the PVDF membrane was placed in 1×TBST solution with 5% milk and blocked at room temperature for 1h. […] The primary antibody solution was discarded, and the PVDF membrane was washed three times with 1× TBST for 5 min each. […] The secondary antibody solution was discarded, and the PVDF membrane was washed three times with 1× TBST for 5 min each. Western membrane imaging was performed using a dual-color infrared laser imaging system (Licor catalog number Odyssey CLX). Bands were analyzed in grayscale using the software Image Studio. For each sample, GAPDH protein bands were detected as internal reference. The degradation rates of the AR protein for the compounds and positive control sample were calculated based on the grayscale of the protein bands.
A general note: Immunoblotting shows a protein as a band on a membrane.

`C[C@H]1CC2(CCN(c3ccc(N4CCC(CN5CCC6(CC5)COc5c6ccc6c5C(=O)N(C5CCC(=O)NC5=O)C6)CC4)cc3)CC2)CN1c1ccc(C#N)c(Cl)c1` (stereo partly drawn) [2-103] showed an IC50 in the assay on VCaP cells of 0.036 µM. In the assay with LNCAP FGC cells, inhibition was half-maximal at 0.85 µM (IC50). Besides, at AR protein, the “Degradation rates of the AR protein in LNCAP cells, 10 nM (%)” value (shortened to “Degradation rates … 10 nM (%)”) is 55% and the “Degradation rates of the AR protein in LNCAP cells, 100 nM (%)” value (“Degradation rates … 100 nM (%)” for short) worked out at 79%.

For `CC1(CN2CCC3(CC2)COc2c3ccc3c2C(=O)N(C2CCC(=O)NC2=O)C3)CCN(c2ccc(C(=O)N[C@H]3CC[C@H](Oc4ccc(C#N)c(Cl)c4)CC3)nn2)CC1` (relative stereo) [2-262], half-maximal inhibition with VCaP cells (IC50) was put at 0.011 µM. Moreover, inhibition in the assay with LNCAP FGC cells was half-maximal at 21.3 µM (IC50). Also, on AR protein, the “Degradation rates … 10 nM (%)” value was 47% and the “Degradation rates … 100 nM (%)” value was determined as 68%.

On to `COc1cc(O[C@H]2CC[C@H](NC(=O)c3ccc(N4CCC(C)(CN5CCC6(CC5)COc5c6ccc6c5C(=O)N(C5CCC(=O)NC5=O)C6)CC4)nn3)CC2)ccc1C#N` (relative stereo) [2-261], for which the IC50 with VCaP cells is 0.012 µM. In the assay with LNCAP FGC cells, this compound showed an IC50 of 49.1 µM. Moreover, at AR protein, the “Degradation rates … 10 nM (%)” value was found to be 53% and the “Degradation rates … 100 nM (%)” value is 70%.

On to `COc1cc(O[C@H]2C(C)(C)[C@H](NC(=O)c3ccc(N4CCC(C)(CN5CCC6(CC5)COc5c6ccc6c5C(=O)N(C5CCC(=O)NC5=O)C6)CC4)cc3)C2(C)C)ccc1C#N` (relative stereo) [2-292], for which the IC50 was determined as 0.003 µM with VCaP cells and 68.5 µM with LNCAP FGC cells. The “Degradation rates … 10 nM (%)” value at AR protein turned out to be 43%. In addition, the “Degradation rates … 100 nM (%)” value at AR protein was found to be 78%.

Regarding `COc1cc(O[C@H]2C(C)(C)[C@H](NC(=O)c3ccc(N4CCC(CN5CCC6(CC5)COc5c6ccc6c5C(=O)N(C5CCC(=O)NC5=O)C6)(OC)CC4)cc3)C2(C)C)ccc1C#N` (relative stereo) [2-293], the IC50 in the assay with VCaP cells came out at 0.005 µM; in the assay with LNCAP FGC cells, 88.1 µM. Further, the “Degradation rates … 10 nM (%)” value at AR protein was 62%. For the same compound, the “Degradation rates … 100 nM (%)” value at AR protein was determined as 82%.

With `N#Cc1ccc(O[C@H]2CC[C@H](NC(=O)c3ccc(N4CCC(F)(CN5CCC6(CC5)COc5c6ccc6c5C(=O)N(C5CCC(=O)NC5=O)C6)CC4)nn3)CC2)cc1Cl` (relative stereo) [2-315], inhibition in the assay with VCaP cells was half-maximal at 0.007 µM (IC50). In the assay with LNCAP FGC cells, this compound displayed an IC50 of 2.45 µM. Moreover, on AR protein, the “Degradation rates … 10 nM (%)” value is recorded as 33% and the “Degradation rates … 100 nM (%)” value is recorded as 44%.

Take `COc1cc(O[C@H]2CC[C@H](NC(=O)c3ccc(N4CCC(F)(CN5CCC6(CC5)COc5c6ccc6c5C(=O)N(C5CCC(=O)NC5=O)C6)CC4)nn3)CC2)ccc1C#N` (relative stereo) [2-316]: in the assay on VCaP cells, the concentration for half-maximal inhibition (IC50) came to 0.002 µM. This compound gave an IC50 in the assay with LNCAP FGC cells of 68.2 µM. Also, at AR protein, the “Degradation rates … 10 nM (%)” value turned out to be 49% and the “Degradation rates … 100 nM (%)” value is listed as 61%.

Take `COc1cc(O[C@H]2C(C)(C)[C@H](NC(=O)c3ccc(N4CCC(CN5CCC6(CC5)COc5c6ccc6c5C(=O)N(C5CCC(=O)NC5=O)C6)CC4)cc3)C2(C)C)ccc1C#N` (relative stereo) [2-318]: in the assay on VCaP cells, the IC50 came out at 0.001 µM. In the assay on LNCAP FGC cells, this compound registered an IC50 of 9.85 µM. In addition, on AR protein, the “Degradation rates … 10 nM (%)” value worked out at 58% and the “Degradation rates … 100 nM (%)” value amounted to 73%.

`COC1(CN2CCC3(CC2)COc2c3ccc3c2C(=O)N(C2CCC(=O)NC2=O)C3)CCN(c2ccc(C(=O)N[C@H]3CC[C@H](Oc4ccc(C#N)c(Cl)c4)CC3)nn2)CC1` (relative stereo) [2-263]: the IC50 was 0.011 µM in the assay with VCaP cells and 6.29 µM in the assay with LNCAP FGC cells. Further, on AR protein, the “Degradation rates … 10 nM (%)” value is recorded as 38%. Besides, the “Degradation rates … 100 nM (%)” value at AR protein was 69%.
